These results are taken from publication PMC6222789, “CF3-Substituted Mollugin 2-(4-Morpholinyl)-ethyl ester as a Potential Anti-inflammatory Agent with Improved Aqueous Solubility and Metabolic Stability” (Molecules : A Journal of Synthetic Chemistry and Natural …, 2018).

One data set has as its system CYP3A4. Put plainly: CYP inhibition assay, CYP3A4. In kind it is in vitro ADME, human. As to conditions: for CYP Inhibition (% of Control) 3A4: 10 μM, CYP activity in presence of inhibitor as % of control, human liver microsomes. As for the experimental part:
(§1) All incubations were performed in duplicate, and the mean values were used for analysis. The assays of phenacetin O-deethylase, tolbutamide 4-hydroxylase, S-mephenytoin 4-hydroxylase, dextromethorphan O-demethylase and midazolam 1′-hydroxylase activities were determined as probe activities for CYP1A2, CYP2C9, CYP2C19, CYP2D6 and CYP3A, respectively, using cocktail incubation and tandem mass spectrometry. Briefly, incubation reaction was performed with 0.25 mg/mL human liver microsomes in a final incubation volume of 100 μL. The incubation medium contained 100 mM phosphate buffer (pH 7.4) with probe substrates. The incubation mixture containing various inhibitors (10 μM) was pre-incubated for 5 min. After pre-incubation, an NADPH regenerating system was added. After incubation at 37 °C for 15 min, the reaction was stopped by placing the incubation tubes on ice and adding 40 μL of ice-cold acetonitrile. The incubation mixtures were then centrifuged at 10,000× g for 5 min at 4 °C. Aliquots of the supernatant were injected onto an LC-MS/MS system. The CYP-mediated activities in the presence of inhibitors were expressed as percentages of the corresponding control values.

In another data set the test system is cell viability. The experiment in a line: MTT cell viability assay. In kind it is cell-based. The settings on record: 10 μM concentration.
Data set [1] in a line: Metabolic stability, dog liver microsomes. In kind it is in vitro ADME. As to conditions: 30 min, 1 μM. As for the experimental part: Pooled human liver microsomes (150 donor) and dog, rat, mouse liver microsomes were obtained from BD Gentest Co. (Woburn, MA, USA). NADPH regeneration system was obtained from Promega. S-Mephenytoin, 4-hydroxymephenytoin, and 1’-hydroxymidazolam were purchased from Ultrafine Chemical Co. (Manchester, UK). All other chemicals and solvents were of the highest grade available. The metabolic stability assay was performed by incubation of human or selected animal liver microsomes (most often dog, rat and mouse), at 37 °C with a test compound at a final concentration of 1 μM, in the presence of 0.5 mg/mL microsomal protein and NADPH regeneration system, in a total volume of 100 μL of 100 mM phosphate buffer, pH 7.4. The incubation was started by the addition of NADPH regeneration system and terminated with 40 μL of ice-cold acetonitrile at 0 and 30 min. Precipitated proteins were removed by centrifugation at 10,000× g for 5 min at 4 °C. Aliquots of the supernatant were injected onto an LC-MS/MS system. Incubations terminated prior to the addition of NADPH regeneration system (time point 0 min) were used as standards, defined as 100%. Percent of the parent compound remaining was calculated by comparing peak area.

For another data set, the target named is T1, CYP1A2 (Homo sapiens, UniProt P05177).
T1 construct: from tissue; host or cells: human liver microsomes
T1 sequence (P05177 1-516): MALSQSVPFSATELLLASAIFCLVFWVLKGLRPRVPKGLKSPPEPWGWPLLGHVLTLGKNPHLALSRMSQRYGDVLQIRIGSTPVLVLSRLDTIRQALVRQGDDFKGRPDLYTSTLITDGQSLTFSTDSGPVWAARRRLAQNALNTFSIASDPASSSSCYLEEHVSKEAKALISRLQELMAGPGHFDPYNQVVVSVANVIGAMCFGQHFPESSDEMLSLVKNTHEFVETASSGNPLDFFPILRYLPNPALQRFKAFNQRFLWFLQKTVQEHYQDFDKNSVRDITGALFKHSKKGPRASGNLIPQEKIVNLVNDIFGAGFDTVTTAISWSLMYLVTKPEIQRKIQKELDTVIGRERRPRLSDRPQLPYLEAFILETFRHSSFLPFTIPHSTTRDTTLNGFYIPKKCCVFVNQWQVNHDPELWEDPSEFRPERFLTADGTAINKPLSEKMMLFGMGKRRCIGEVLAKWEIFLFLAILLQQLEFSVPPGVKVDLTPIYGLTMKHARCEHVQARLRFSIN
The experiment in a line: CYP inhibition assay, CYP1A2. The settings on record: for CYP Inhibition (% of Control) 1A2: 10 μM, CYP activity in presence of inhibitor as % of control, human liver microsomes. In kind it is in vitro ADME. As for the experimental part:
as §1

The target of another data set is T2, CYP2C19 (Homo sapiens, UniProt P33261).
T2 construct: from tissue; host or cells: human liver microsomes
Put plainly: CYP inhibition assay, CYP2C19. The settings on record: for CYP Inhibition (% of Control) 2C19: 10 μM, CYP activity in presence of inhibitor as % of control, human liver microsomes. In kind it is in vitro ADME. As for the experimental part:
as §1

Data set [2] deals with IL-6-induced adhesion of U937 monocytic cells to HT-29 cells. Put plainly: IL-6-induced colonic epithelial cell adhesion assay. In kind it is cell-based, human. The settings on record: Homo sapiens, Epithelial cell, 10 uM; U937 adhesion to HT-29 cells, IL-6-induced. As for the experimental part:
Synthesized mollugin derivatives were subjected to the colonic epithelial cell adhesion assay, which mimics the initial stage of colon inflammation. The inhibition of TNF-α-induced or IL-6-induced adhesion of U937 monocytic cells to HT-29 cells in 10 μM solution of synthesized molecules was measured, and the results are summarized in Table 1 and Table 2. Mesalazine (2), a commercially available medication for the treatment of IBD, and mollugin were chosen as assay positive controls.
HT-29 human colonic epithelial cells and U937 human pre-monocytic cells were grown in RPMI 1640 medium supplemented with 10% FBS, 100 IU/mL penicillin, and 100 µg/mL streptomycin in a humidified incubator under 5% CO2/95% air.
U937 monocytic cell adhesion to colonic epithelial cells was evaluated using human U937 pre-monocytic cells, which were prelabeled with 2′,7′-bis(2-carboxyethyl)-5(6)-carboxyfluorescein acetoxymethyl ester (BCECF/AM, 10 μg/mL) for 1 h at 37 °C. HT-29 cells cultured in 24-well plates were pretreated with test compound, 5-ASA, or tofacitinib for 1 h prior to incubation with TNF-α (10 ng/mL) and IL-6 (5 ng/mL) for an additional 3 h. Cells were then co-incubated with BCECF/AM-prelabeled U937 cells (1 × 10^6 cells/well) for 30 min at 37 °C. Non-adhering U937 cells were removed, and the HT-29 cells and adherent U937 cells were washed twice with PBS. Images were captured and processed with a Nikon ECLIPSE TE2000-U microscope and NIS-Elements F software (Nikon, Tokyo, Japan). For quantitative analysis, other sets of cells were lysed in 0.1% Triton X-100 in Tris (0.1 M), and the fluorescence was measured using a fluorescence-detecting microplate reader (Promega , Madison, WI, USA) at […]. Experiments were performed in triplicate and repeated at least three times independently.

Bounds are passed on as bounds.

T2 sequence (P33261 whole entry): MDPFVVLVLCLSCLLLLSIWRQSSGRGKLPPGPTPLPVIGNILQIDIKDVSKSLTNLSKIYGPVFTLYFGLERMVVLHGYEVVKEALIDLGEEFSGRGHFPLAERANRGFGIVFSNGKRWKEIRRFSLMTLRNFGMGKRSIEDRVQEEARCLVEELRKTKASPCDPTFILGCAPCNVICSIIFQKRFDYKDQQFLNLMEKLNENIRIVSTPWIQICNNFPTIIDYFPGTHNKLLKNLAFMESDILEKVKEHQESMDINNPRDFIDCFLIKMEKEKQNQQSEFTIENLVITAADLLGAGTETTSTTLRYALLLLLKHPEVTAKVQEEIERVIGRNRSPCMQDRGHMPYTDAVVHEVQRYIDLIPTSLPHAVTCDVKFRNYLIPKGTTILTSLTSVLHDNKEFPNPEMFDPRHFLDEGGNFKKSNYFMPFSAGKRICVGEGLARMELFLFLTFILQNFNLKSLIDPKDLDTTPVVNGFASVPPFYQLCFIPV

Regarding `CC1(C)C=Cc2c(C(=O)OCCN3CCOCC3)c(O)c3cc(C(F)(F)F)ccc3c2O1` [15c, 2-Morpholinoethyl 6-hydroxy-2,2-dimethyl-8-(trifluoromethyl)-2H-benzo[h]chromene-5-carboxylate], the “CYP Inhibition (% of Control) 3A4” value in the data set with CYP3A4 is given as 90 % of Control. The inhibition at 15 min, 10 μM was < 50% in the data set with CYP3A4 (human, liver microsomes, pH 7.4, probe midazolam (1′-hydroxylation), at 10 μM drug concentration, read-out: % inhibition of CYP 3A4); < 50% on CYP1A2 (human, liver microsomes, pH 7.4, probe phenacetin (O-deethylation), at 10 μM drug concentration, read-out: % inhibition of CYP 1A2); < 50% at CYP2C19 (human, liver microsomes, pH 7.4, probe S-mephenytoin (4-hydroxylation), at 10 μM drug concentration, read-out: % inhibition of CYP 2C19). Also, in the data set on cell viability, the “effect on cell viability (MTT)” value was “neither 6d nor 15c affects the cell viability”. For the same compound, the “Metabolic Stability (% Remain, 30 min) Dog” value in data set [1] turned out to be 86 % Remain. Besides, on CYP1A2, the “CYP Inhibition (% of Control) 1A2” value is on record as 57 % of Control. Also, on CYP2C19, the “CYP Inhibition (% of Control) 2C19” value is 93 % of Control. The same compound returned an inhibition at 10 µM in data set [2] of 50.3 ± 5.7%.
On to `CC1(C)C=Cc2c(C(=O)OCCN3CCOCC3)c(O)c3ccccc3c2O1` [6d, 2-Morpholinoethyl 6-hydroxy-2,2-dimethyl-2H-benzo[h]chromene-5-carboxylate], for which, in the data set with CYP3A4, the “CYP Inhibition (% of Control) 3A4” value is listed as 91 % of Control. In addition, the “effect on cell viability (MTT)” value in the data set on cell viability is listed as “neither 6d nor 15c affects the cell viability”. Moreover, the “Metabolic Stability (% Remain, 30 min) Dog” value in data set [1] is recorded as 45 % Remain. Besides, the “CYP Inhibition (% of Control) 1A2” value on CYP1A2 is given as 58 % of Control. In addition, the “CYP Inhibition (% of Control) 2C19” value at CYP2C19 is reported as 68 % of Control. Further, the inhibition at 10 µM in data set [2] stood at 26.5 ± 5%.
